Patent EP0099122A2, “Compositions comprising pepstatin and an histamine H2-receptor antagonist having an enhanced antiulcer activity” (Bristol-Myers Company, priority 1982, dated 1984)
Where two headings read alike, the source gives them in different places.

Columns and labels:
[1] = system: Heidenhain Pouch Dog; assay: Gastric antisecretory activity in the Heidenhain Pouch Dog; assay type: in vivo, dogs; conditions: 95% confidence limits in parentheses; for ED50: Canis lupus familiaris
Description: Determination of Gastric Antisecretory […] in the Heidenhain Pouch Dog Prior to surgery, hematology and blood chemistry profiles are obtained and an assessment made as to the general health of selected female dogs. Dogs are vaccinated with Tissue […]-Moore) and housed in general animal quarters for four weeks' observation so incipient diseases may become apparent. Dogs are fasted with water ad libitum 24 hours prior to surgery. […] Subsequent anesthesia is maintained with methoxy- flurane (Pitman-Moore). A mid-line linea alba incision from xiphoid to umbilicus provides good exposure and ease of closure. The stomach is pulled up into the operative fields the greater curvature stretched out at multiple points and clamps placed along the selected line of incision. The pouch is made from the corpus of the stomach so that true parietal cell juice is obtained. About 30% of the corpus volume is resected. The cannula is made of light-weight, biologically-inert material such as nylon or Delrin with dimensions and attachments after DeVito and […] fJ. Appl. Physiol., 14, 138 (1959)]. Post operatively, dogs are medicated with antibiotics and an analgesic. They are allowed 2-3 months for recovery. Experiments are carried out in the following way: […] The dogs are placed in a sling and a saphenous vein cannulated for drug administration. Histamine as the base (100 μg/kg/hr) and chlorpheniramine maleate (0.25 mg/kg/hr) are infused continuously (in a volume of 6 mL/hr) with a Harvard infusion pump. Ninety minutes' infusion are allowed for the dogs to reach a steady state of acid output. At this time the drug or normal saline (control) is administered concomitantly with the secretagogue in a volume of 0.5 mL/kg over a 30 second period. When oral studies are to be carried out, the drug is administered via gastric gavage in a volume of 5 mL/kg. Infusion of the secretagogue is continued and 15 minute samples of the gastric juice are taken for 4.5 hours. Each sample is measured to the nearest 0.5 mL and titratable acidity is determined by titrating a 1 mL sample to pH 7.0 with 0.2N NaOH, using an Autoburet and an electrometric pH meter '(Radiometer). Titratable acid output is calculated in microequivalents by multiplying the volume in milliliters by the acid concentration in milliequivalents per liter. Results are expressed as percent inhibition relative to control readings. Dose response curves are constructed and ED50 values are calculated by regression analyses. From 3 to 5 dogs are used at each dose level and a minimum of three dosage levels are utilized for determination of a dose response curve.

[2] = system: Gastric Fistula Rat; assay: Gastric antisecretory activity in the Gastric Fistula Rat; assay type: in vivo, Long Evans rats; conditions: sc; for ED50: Rattus norvegicus, read-out: ED50 sc
Description: Determination of Gastric Antisecretory Activity in the Gastric Fistula Rat
Male Long Evans rats weighing about 240-260 grams at the time of cannula implantation are used. […] The fistula components are designed and the operative procedure is carried out exactly as described in the above reference. Post operatively the animals are individually housed in solid bottom cages with sawdust and are allowed food and water ad libitum throughout the entire recovery period. Animals are not used for test purposes for at least 15 days after the operative procedure.
The animals are fasted but allowed water ad libitum for 20 hours before the testing procedure is to begin. Immediately prior to collection, the cannula is opened and the. stomach washed gently with 30-40 mL of warm saline or distilled water to remove any residual contents. The catheter is then screwed into the cannula in place of the plugging screw and the rat is placed in a clear plastic rectangular cage measuring 40 cm long, 15 cm wide and 13 cm high. The bottom of the cage has a slit approximately 1.5 cm wide and 25 cm long running down the center to accommodate the catheter which hangs through it. In this way the rat is not restricted and can move -freely about the cage during collection periods. The remainder of the assay is carried out as described by Ridley et al. [Research Comm. Chem. Path.
Gastric secretions collected during the first hour after washing the stomach are discarded as they may be contaminated. For oral evaluation, the catheter is then removed from the cannula and replaced with the plugging screw. Water (2 mL/kg) is administered orally via gastric intubation and the animal is returned to the cage for 45 minutes. After this time the plugging screw is removed and replaced with a catheter to which a small plastic vial has been attached to collect the gastric secretions. A two hour sample is collected (this represents the control secretion), the catheter removed and.replaced with the plugging screw. The test drug is now administered orally in a volume of 2 mL/kg via gastric intubation. Forty-five minutes later the plugging screw is again removed, replaced with the catheter attached to a small plastic vial and another 2 hour sample is collected. The secretions in the second sample are compared to those of the control sample in order to determine thee effects of the test drug.
When test compounds are to be evaluated parenterally, the animal is injected ip or sc with the test compound vehicle in a volume of 2 mL/kg immediately after discarding the initial 60 minute collection. A two hour sample is collected (control secretion) and the animals are injected either ip or sc with the test compound in a volume of 2 mL/kg. An additional two hour sample is collected and its secretions are compared to those of the control period to determing drug effects.
The samples are centrifuged in a graduated tube for volume determination. Titratable acidity is measured by titrating a one mL sample to pH 7.0 with 0.02N NaOH, using an Autoburet and an electrometric pH meter (Radiometer). Titratable acid output is calculated in microequivalents by multiplying the volume in milliliters by the acid concentration in milliequivalents per liter.
Results are expressed as percent inhibition relative to control readings. Dose response curves are constructed and ED50 values are calculated by regression analyses. At least three rats are used at each dosage level and a minimum of three dosage levels are utilized for determination of a dose response curve.

[3] = system: gastric acid secretion; assay: Inhibition of gastric acid secretion relative to cimetidine, various animal studies; assay type: in vivo; conditions: inhibitors of gastric acid secretion, oral route
Description: Based on this potency difference, the oral dosage of the compounds of Examples 1 and 9 would be about 1/20 to 1/25 that of cimetidine, thus reducing the expected incidence of side effects. The usual oral dosage of cimetidine is 300 mg, given four times a day, while the usual dosage of the compounds of Examples 1 and 9 is about 12-15 mg, given four times a day. It was an object of this invention to further reduce the necessary dosage of the compounds of Formula I by the concomitant administration of a peptic activity- inhibitory amount of pepstatin. As will be shown below, such concomitant administration provides about a three-fold increase in potency compared with the administration of an equal amount of the compound of Formula I alone, thus permitting a further three-fold reduction in the dosage of the compound of Formula I.

[4] = system: gastric acid secretion; assay: Inhibition of gastric acid secretion relative to cimetidine, oral route, dog; assay type: in vivo
Description: (§1) In the tests described below, gastric erosions produced in rats by the oral instillation of 1.0 mL of 0.75N HC1 were compared with those in rats which had been pretreated with the most preferred compound of Formula I (of Example 1) or with that compound and pepstatin. Comparison tests utilizing pretreatment with the newer commercial product, ranitidine, and with ranitidine and pepstatin, are also shown. Ranitidine is about 4 and 6 times as potent as cimetidine as an inhibitor of gastric acid secretion by the oral route in the rat and dog, respectively.

[5] = system: HCl-Induced Formation of Gastric Lesions; assay: HCl-induced gastric erosions in rats (modified method of Robert et al.); assay type: in vivo, Long Evans rats; conditions: compound alone versus compound plus pepstatin (20 mg/kg po)
Description: as §1
A modification of the method of Robert et al., [Gastroenterology, 77, 433-443 (1979)] was employed to produce gastric erosions. Adult male, Long Evans rats weighing 280-300 g (Blue Spruce Farms, Alton, New York) were used. The animals were individually caged and food and water were removed 24 and 18 hours, respectively, prior to testing. On the following day, the test compound was administered orally to the animals 30 minutes before 1.0 mL of 0.75N HC1 was instilled into the stomach by gavage. Animals treated with the combination of the test compound and pepstatin received the test compound 30 minutes before, and a fixed amount of pepstatin (20 mg/kg po) 10 minutes before, the hydrochloric acid was administered. […] One hour after receiving the HC1 solution, the animals were sacrificed with an intraperitoneal injection of 0.2 mL of T-61®, a euthanasia solution (National Laboratories Corp.).
The stomachs were removed from the animals, cut along the greater curvature, opened, rinsed with saline and pinned out flat in a standard position for macroscopic examination and scoring of erosions. The stomachs were photographed with a Polaroid® Close Up camera (Polaroid Corporation) and scoring was determined from the photographs. For scoring purposes, only those erosions with a minimum length of 1 mm were considered. The severity of gastric ulceration was defined for each animal as the sum of the maximum continuous lengths (in mm) of the erosions satisfying the above criteria. Percent inhibition of lesion formation was defined as
(mm erosion, vehicle control') - (mm erosion, test agent) 100. (mm erosion, vehicle control)
Data were analyzed using the t-test for unpaired data' and ED50 values were calculated from the dose response data using probit analysis [Finney, Probit Analysis, 3rd ed., University Press, Cambridge, England (1971)].
The compound of Example 1 and ranitidine (synthesized by the Medicinal Chemistry Research Department of Bristol Laboratories, Division of.Bristol-Myers Company) were dissolved in one equivalent of HC1 and the pH adjusted to 5.5 with NaOH. A suspension of pepstatin (Banyu Pharmaceutical Co. Ltd.) in water was made by homogenizing the compound with a few drops of Tween-80® (Atlas Chemical Industries). Each of these compounds were administered orally by gavage in a volume of 2 mL/kg.

[6] = system: gastric acid secretion; assay: Inhibition of gastric acid secretion relative to cimetidine, oral route, rat; assay type: in vivo
Description: as §1

[7] = 95% confidence limits in parentheses

| SMILES | ED50 [2, 7] [µmol/kg] | Potency Ratio [cimetidine = 1.0] [2, 7] | other results |
| --- | --- | --- | --- |
| CN/C(=N/CCSCc1nc[nH]c1C)NC#N [Cimetidine, cimetidine, reference compound] |  |  | ED50 ([1]; INTRAVENOUS): 2.18 µmol/kg; ED50 ([1]; ORAL): 3.29 µmol/kg; ED50 [2]: 3.8 µmol/kg |
| CN(C)Cc1ccc(CSCCNc2c(N)c(=O)c2=O)o1 [Example 2, 1-Amino-2-{2-[(5-dimethylaminomethyl-2-furyl)methylthio]ethyl-amino}cyclobutene-3,4-dione] | < 1 | >4 | Potency Ratio [cimetidine = 1.0] ([1]; INTRAVENOUS): ~20 |
| CN(C)Cc1ccc(CSCCNc2c(N)c(=O)c2=O)s1 [Example 3, 1-Amino-2-{2-[(5-dimethylaminomethyl-2-thienyl)methylthio]ethyl-amino}cyclobutene-3,4-dione] | ~4 | ~1 |  |
| CN(C)Cc1cccc(OCCCNc2c(N)c(=O)c2=O)c1 [Example 9, 1-Amino-2-[3-(3-dimethylaminomethylphenoxy)propylamino]cyclobutene-3,4-dione] | 0.055 | 61 (20-204) | Potency Ratio [cimetidine = 1.0] ([1]; INTRAVENOUS): ~40; Potency Ratio [cimetidine = 1.0] ([1]; ORAL): ~20; times more potent than cimetidine [3]: 20-25 |
| Nc1c(NCCCOc2cccc(CN3CCCCCC3)c2)c(=O)c1=O [Example 10i, 1-amino-2-[3-(3-hexamethyleneiminomethylphenoxy)propylamino]-cyclobutene-3,4-dione] | 0.08 | 48 (21-97) | Potency Ratio [cimetidine = 1.0] ([1]; INTRAVENOUS): >40 |
| Nc1c(NCCCOc2cccc(CN3CCCCCCC3)c2)c(=O)c1=O [Example 10j, 1-amino-2-[3-(3-heptamethyleneiminomethylphenoxy)propylamino]-cyclobutene-3,4-dione] | 0.044 | 88 (36-211) |  |
| Nc1c(NCCCOc2cccc(CN3CCCCCCCC3)c2)c(=O)c1=O [Example 10m, 1-amino-2-[3-(3-octamethyleneiminomethylphenoxy)propylamino]-cyclobutene-3,4-dione] | 0.7 | 5.4 (2.1-12) |  |
| CNc1c(NCCCOc2cccc(CN3CCCCC3)c2)c(=O)c1=O [Example 11, 1-Methylamino-2-[3-(3-piperidinomethylphenoxy)propylamino]cyclobutene-3,4-dione] | 0.067 | 50 (15-169) |  |
| O=c1c(NCCCOc2cccc(CN3CCCCC3)c2)c(NCc2cccnc2)c1=O [Example 12, 2-[3-(3-Piperidinomethylphenoxy)propylamino]-l-(3-pyridyl)methyl-aminocyclobutene-3,4-dione] | 0.094 | 44 (22-90) |  |
| C#CCNc1c(NCCCOc2cccc(CN3CCCCC3)c2)c(=O)c1=O [Example 14d] | 0.031 | 124 (62-243) |  |
| CNC(=C[N+](=O)[O-])NCCSCc1ccc(CN(C)C)o1 [Ranitidine, ranitidine] |  |  | times as potent as cimetidine as an inhibitor of gastric acid secretion [4]: ~6; Potency Ratio [5]: 1.18; times as potent as cimetidine as an inhibitor of gastric acid secretion [6]: about 4 |
